Results on ten molecules are retold here after US20230203043A1, “NOVEL IMIDAZOPYRAZINE DERIVATIVES” (Hoffmann-La Roche Inc., priority 2020, published 2023).

The test concerns Acinetobacter baumannii ATCC17961. Kind of test: Antimicrobial susceptibility testing: 90% growth inhibitory concentration (IC90) determination in Iso-Sensitest broth, OD600 growth. It is filed as cell-based. In short, it runs like this: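 Growth monitored at 600 nm every 20 min for 16 h at 35±2 °C, inoculum ~5×10^(5) CFU/ml in Iso-Sensitest medium. Compounds in 10-point twofold series, e.g. 50 to 0.097 μM final; 90% inhibitory concentration taken from log-phase growth.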

Where [1] appears, read: Acinetobacter baumannii, ATCC17961, 16 h, strain ATCC 17961, OD600 growth over 16 h, read-out: A. baumannii ATCC 17961 IC90.

Counter-ions that a name gives are not always drawn. Like-named read-outs stand apart in the source and are kept apart here.

Take `CCc1cc(Nc2nccn3c(-c4cn(CC(F)F)nc4C(F)(F)F)cnc23)ccc1C(=O)NC1C2CNCC21` (stereo not shown) [Example 562, N-(3-azabicyclo[3.1.0]hexan-6-yl)-4-((3-(1-(2,2-difluoroethyl)-3-(trifluoromethyl)-1H-pyrazol-4-yl)imidazo[1,2-a]pyrazin-8-yl)amino)-2-ethylbenzamide formate]: under “Acinetobacter baumannii, ATCC17961, 16 h, read-out: A. baumannii ATCC 17961 IC90 (uM), strain ATCC 17961, OD600 growth over 16 h”, the IC90 worked out at 0.305 µM.
In the case of `O=C(CNCCNC(=O)c1ccc(Nc2nccn3c(-c4cn(CC(F)F)nc4C(F)(F)F)cnc23)cc1Cl)N[C@H]1CCNC1` [Example 822, (S)-2-chloro-4-(3-(1-2,2-difluoroethyl)-3-(trifluoromethyl)-1H-pyrazol-4-yl)imidazo[1,2-a]pyrazin-8-yl)amino)-N-(2-((2-oxo-2-(pyrrolidin-3-ylamino)ethyl) amino)ethyl) benzamide formate], under setting [1], the IC90 was 0.15 µM.
On the same count and under the same terms, the same measure for `CCc1cc(Nc2nccn3c(-c4c[nH]nc4C(F)(F)F)cnc23)ccc1C(=O)NCCNC(=O)N1CCC(N)CC1` [Example 568, 4-amino-N-(2-(2-ethyl-4-((3-(3-(trifluoromethyl)-1H-pyrazol-4-yl)imidazo[1,2-a]pyrazin-8-yl)amino)benzamido)ethyl) piperidine-1-carboxamide formate]: 0.46 µM; for `O=C(c1ccc(Nc2nccn3c(-c4c[nH]nc4C(F)(F)F)cnc23)cc1Cl)N1CC2(CNC2)C1` [Example 111, [2-chloro-4-[[3-[3-(trifluoromethyl)-1H-pyrazol-4-yl]imidazo[1,2-a]pyrazin-8-yl]amino]phenyl]-(2,6-diazaspiro[3.3]heptan-2-yl)methanone]: 0.997 µM.
On to `C[C@H](NC(=O)c1ccc(Nc2nccn3c(-c4c[nH]nc4C(F)(F)F)cnc23)cc1Cl)C(=O)N1CCNCC1` [Example 140, 2-chloro-N-[(2S)-1-oxo-1-piperazin-1-ylpropan-2-yl]-4-[[3-[3-(trifluoromethyl)-1H-pyrazol-4-yl]imidazo[1,2-a]pyrazin-8-ylamino]benzamide formate], for which the IC90 (strain ATCC 17961, OD600 growth over 16 h, read-out: A. baumannii ATCC 17961 IC90) worked out at 3.31 µM.
Turning to `C#CCNCCCCNC(=O)c1c(C)cc(Nc2nccn3c(-c4c[nH]nc4C(F)(F)F)cnc23)cc1F` [Example 783, 2-fluoro-6-methyl-N-(4-(prop-2-yn-1-ylamino)butyl)-4-((3-(3-(trifluoromethyl)-1H-pyrazol-4-yl)imidazo[1,2-a]pyrazin-8-yl)amino)benzamide], the IC90 under setting [1] came to 1.21 µM.
On the same count and under the same terms, to `Cc1cc(Nc2nccn3c(-c4cn(CC#N)nc4C(F)(F)F)cnc23)cc(F)c1C(=O)NCCOCCN` [Example 75, N-[2-(2-aminoethoxy)ethyl]-4-[[3-[1-(cyanomethyl)-3-(trifluoromethyl)pyrazol-4-yl]imidazo[1,2-a]pyrazin-8-yl]amino]-2-fluoro-6-methylbenzamide] belongs 1.7 µM; to `NCC(=O)N1CCN(C(=O)c2ccc(Nc3nccn4c(-c5c[nH]nc5C(F)(F)F)cnc34)cc2Cl)CC1` [Example 131, 2-amino-1-[4-[2-chloro-4-[[3-[3-(trifluoromethyl)-1H-pyrazol-4-yl]imidazo[1,2-a]pyrazin-8-yl]amino]benzoyl]piperazin-1-yl]ethanone], 0.117 µM; to `Cc1cc(Nc2nccn3c(-c4cn(CC(F)F)nc4C(F)(F)F)cnc23)cc(F)c1C(=O)N1CCN(C(=O)[C@@H]2C[C@@H](O)CN2)CC1` [Example 698, (4-(4-((3-(1-(2,2-difluoroethyl)-3-(trifluoromethyl)-1H-pyrazol-4-yl)imidazo[1,2-a]pyrazin-8-yl)amino)-2-fluoro-6-methylbenzoyl)piperazin-1-yl)((2S,4R)-4-hydroxypyrrolidin-2-yl)methanone], 0.374 µM.
For the molecule `Cc1cc(Nc2nccn3c(-c4cn(CC#N)nc4C(F)(F)F)cnc23)cc(F)c1C(=O)N[C@H](C)CN` [Example 719, (R)-N-(1-aminopropan-2-yl)-4-((3-(1-(cyanomethyl)-3-(trifluoromethyl)-1H-pyrazol-4-yl)imidazo[1,2-a]pyrazin-8-yl)amino)-2-fluoro-6-methylbenzamide], the IC90 under setting [1] turned out to be 0.435 µM.
